From patent publication US20200163984A1, “USE OF ISOVALERYL SPIRAMYCIN I, II AND/OR III IN MANUFACTURING MEDICAMENT FOR TREATING AND/OR PREVENTING TUMOR, AND MEDICAMENT” (SHENYANG FUYANG PHARMACEUTICAL TECHNOLOGY CO., LTD., priority 2017, published 2020)
Blank lines part the entries; values can stand above or below the compound they belong to.

How the values were obtained:
[1] = system: transplanted tumor of human renal cell adenocarcinoma cell 769-P; assay: 769-P transplanted tumor in nude mice; details: for Tumor Volume (mm3) (d 1): d1; for tumor volume and relative tumor volume compared with the model group: low, medium and high doses, P<0.05; for mouse weight compared with the model group / Body Weight (g) (d1) / Body Weight (g) (d30): in vivo, mouse
Description: Then cell concentration was adjusted to 1×10^7/ml with matrigel, then each nude mouse was inoculated subcutaneously with 0.2 ml of cells at its right armpit and recorded as the first day of inoculation. When the tumor grows to be greater than or equal to 100 mm^3, the mice were randomly divided into 11 groups with 6 mice in each group: a model group, a cyclophosphamide group, isovaleryl spiramycin I groups with doses of 25, 50 and 100 mg/kg, isovaleryl spiramycin II groups with doses of 25, 50 and 100 mg/kg, and isovaleryl spiramycin III groups with doses of 25, 50 and 100 mg/kg. Each group was continuously administered intragastrically for 30 days with a dose of 20 ml/kg. The mice were sacrificed the next day after drug withdrawal and the indicators were tested. The long diameter and short diameter of the tumor, and the weight of each mouse were recorded every 3 days from drug administration to nude mouse sacrifice.
The body weight of the nude mice and the long diameter (a) and short diameter (b) of the transplanted tumor were measured every 3 days, and the tumor volume (v), relative tumor volume (RTV) and relative tumor proliferation rate (T/C) are calculated respectively according to the following formulas, wherein V=a×b^2/2; RTV=V/V0 (V0 is the tumor volume before administration, V is the tumor volume before sacrifice), and T/C (%)=treatment group RTV/model control group RTV×100%.
Each mouse was weighed and sacrificed. After the tumor was completely stripped off from the body of the mouse, the non-tumor tissues such as blood stains and fat were removed to weigh the tumor and calculate the tumor growth inhibition rate. The average tumor weight of each group of mice is used as an indicator of efficacy. Tumor growth inhibition rate (%)=(1−the average tumor weight of the treatment group/the average tumor weight of the model group)×100%.

[2] = system: NK cell activity of spleen cells against K562 cells; assay: Natural killer (NK) cell activity of Lewis lung cancer tumor-bearing mice; type: in vivo, C57BL/6 mouse; details: for NK cell activity compared with the control group: 13, 26 and 52 mg/kg, P<0.01
Description: In the Lewis lung cancer model, the mice inoculated with the tumor were randomly divided into groups with 10 mice in each group the next day of inoculation. The groups included: a model control group, a positive drug cyclophosphamide control group (CTX, 30 mg/kg), isovaleryl spiramycin I groups with doses of 13, 26 and 52 mg/kg; isovaleryl spiramycin II groups with doses of 13, 26 and 52 mg/kg; isovaleryl spiramycin III groups with doses of 13, 26 and 52 mg/kg. Each group was continuously administered intragastrically for 15 days with a dose of 20 ml/kg.
The serum-free RPMI 1640 medium was placed in a dish, and then the dish was placed on ice. The spleen was aseptically taken and gently ground with a sterile glass slide to prepare a single cell suspension. The single cell suspension was filtered with a double-layer sterile gauze, washed twice with serum-free RPMI1640 medium, and centrifuged at 1,500 rpm for 5 min to remove the obtained supernatant. 2 mL of red blood cell lysate was added to the treated suspension, the mixture was allowed to stand for 2 min, and then 8 mL of RPMI 1640 medium was added, centrifuging was performed at 1,500 rpm for 5 min to remove the obtained supernatant, and then washing was performed twice with the RPMI 1640 medium. […] A single cell suspension was prepared by using a RPMI 1640 medium containing 10% fetal bovine serum.
The spleen cell suspension was taken, and the cell density was adjusted to 1×10^7/mL (effector cells). A suspension of K562 cells was prepared with a cell density of 1×10^5/mL (target cells). Each mouse was set with: A. effector cells:target cell well (quantity ratio 20:1) to which […] of spleen cell suspension and 100 μL of K562 cell suspension were added; B. an effector cell control well to which 100 μL of spleen cell suspension and 100 μL of RPMI 1640 medium were added; and C. a target cell control well to which 100 μL of K562 cell suspension and 100 μL of RPMI 1640 medium were added. The above cells were added to a 96-well plate. After the 96-well plate was transferred to a saturated humidity condition with a volume fraction of 5% CO2 at 37° C. for incubation for 22 h, 10 μL of MTT solution (5 g/L) was added to each well, and incubation was continued to be performed for 4 hours under the same conditions, then the culture was terminated. 100 μl of a triple solution (SDS 10 g, 10M HCl 0.1 mL, isobutanol 5 mL, diluted with distilled water to 100 mL) was added, and the plate was shaken for 10 min to fully dissolve the crystals, and the Optical Density (OD) of each well at 490 nm was measured, and the NK cell activity was calculated. NK cell activity (%)=[TO−(S−E)]/TO×100%, wherein TO is the Optical Density of the target cell control well, S is the Optical Density of the effector cell control well, and E is the Optical Density of the effector cell.

[3] = 769-P, high dose (100 mg/kg in method) i.g. 30 days
[4] = 769-P, low dose (25 mg/kg in method) i.g. 30 days
[5] = 769-P, medium dose (50 mg/kg in method) i.g. 30 days

mouse weight compared with the model group [1]: no significant changes
Structure (SMILES): COC1C(OC(C)=O)CC(=O)OC(C)CC=CC=CC(OC2CCC(N(C)C)C(C)O2)C(C)CC(CC=O)C1OC1OC(C)C(OC2CC(C)(O)C(OC(=O)CC(C)C)C(C)O2)C(N(C)C)C1O (stereo not drawn) [Isovaleryl spiramycin II, isovaleryl spiramycin II]
Inhibition Rate (%) ([1]; 769-P nude mice, 25 mg/kg): 38.29%
Relative Tumor Proliferation Rate (T/C) ([1]; 769-P nude mice, 25 mg/kg): 68.22%
Relative Tumor Volume (RTV) ([1]; 769-P nude mice, 25 mg/kg): 12.59 ± 5.32
Tumor Weight ([1]; 769-P nude mice, 25 mg/kg): 1.27 ± 0.42 g
Tumor Volume (mm3) (d 1) ([1]; 769-P nude mice, 25 mg/kg): 162.50 ± 59.24 mm3
Tumor Volume (mm3) (d30) ([1]; 769-P nude mice, 25 mg/kg): 2045.85 ± 301.35 mm3
Inhibition Rate (%) ([1]; 769-P nude mice, 50 mg/kg): 47.61%
Relative Tumor Proliferation Rate (T/C) ([1]; 769-P nude mice, 50 mg/kg): 42.64%
Relative Tumor Volume (RTV) ([1]; 769-P nude mice, 50 mg/kg): 7.87 ± 2.29
Tumor Weight ([1]; 769-P nude mice, 50 mg/kg): 1.3 ± 0.23 g
Tumor Volume (mm3) (d 1) ([1]; 769-P nude mice, 50 mg/kg): 193.10 ± 35.41 mm3
Tumor Volume (mm3) (d30) ([1]; 769-P nude mice, 50 mg/kg): 1519.68 ± 239.38 mm3
Inhibition Rate (%) ([1]; 769-P nude mice, 100 mg/kg): 61.79%
Relative Tumor Proliferation Rate (T/C) ([1]; 769-P nude mice, 100 mg/kg): 34.76%
Relative Tumor Volume (RTV) ([1]; 769-P nude mice, 100 mg/kg): 6.42 ± 0.99
Tumor Weight ([1]; 769-P nude mice, 100 mg/kg): 0.79 ± 0.06 g
Tumor Volume (mm3) (d 1) ([1]; 769-P nude mice, 100 mg/kg): 109.14 ± 10.13 mm3
Tumor Volume (mm3) (d30) ([1]; 769-P nude mice, 100 mg/kg): 700.14 ± 100.08 mm3
Relative Tumor Proliferation Rate (T/C) [1, 3]: 34.76%
tumor growth inhibition rate [1, 3]: 61.79%
Relative Tumor Proliferation Rate (T/C) [1, 4]: 68.22%
tumor growth inhibition rate [1, 4]: 38.29%
tumor volume and relative tumor volume compared with the model group ([1]; 769-P): significantly lower
Relative Tumor Proliferation Rate (T/C) [1, 5]: 42.64%
tumor growth inhibition rate [1, 5]: 47.61%
Body Weight (g) (d1) ([1]; 25 mg/kg): 22.17 ± 1.47 g
Body Weight (g) (d30) ([1]; 25 mg/kg): 22.05 ± 0.71 g
Body Weight (g) (d1) ([1]; 50 mg/kg): 22.07 ± 1.52 g
Body Weight (g) (d30) ([1]; 50 mg/kg): 22.42 ± 0.54 g
Body Weight (g) (d1) ([1]; 100 mg/kg): 21.96 ± 1.19 g
Body Weight (g) (d30) ([1]; 100 mg/kg): 22.33 ± 0.41 g
NK Cell Activity ([2]; 13 mg/kg): 47.2 ± 9.2%
NK Cell Activity ([2]; 26 mg/kg): 47.0 ± 5.5%
NK Cell Activity ([2]; 52 mg/kg): 43.1 ± 7.3%
NK cell activity compared with the control group [2]: significantly increase

mouse weight compared with the model group [1]: no significant changes
Structure (SMILES): CO[C@@H]1[C@@H](O[C@@H]2O[C@H](C)[C@@H](O[C@H]3C[C@@](C)(O)[C@@H](OC(=O)CC(C)C)[C@H](C)O3)[C@H](N(C)C)[C@H]2O)[C@@H](CC=O)C[C@@H](C)[C@@H](O[C@H]2CC[C@H](N(C)C)[C@@H](C)O2)/C=C/C=C/C[C@@H](C)OC(=O)C[C@H]1O [Isovaleryl spiramycin I, isovaleryl spiramycin I]
Inhibition Rate (%) ([1]; 769-P nude mice, 25 mg/kg): 33.68%
Relative Tumor Proliferation Rate (T/C) ([1]; 769-P nude mice, 25 mg/kg): 75.78%
Relative Tumor Volume (RTV) ([1]; 769-P nude mice, 25 mg/kg): 13.99 ± 3.52
Tumor Weight ([1]; 769-P nude mice, 25 mg/kg): 1.37 ± 0.55 g
Tumor Volume (mm3) (d 1) ([1]; 769-P nude mice, 25 mg/kg): 106.47 ± 6.86 mm3
Tumor Volume (mm3) (d30) ([1]; 769-P nude mice, 25 mg/kg): 1489.03 ± 450.17 mm3
Inhibition Rate (%) ([1]; 769-P nude mice, 50 mg/kg): 47.33%
Relative Tumor Proliferation Rate (T/C) ([1]; 769-P nude mice, 50 mg/kg): 57.12%
Relative Tumor Volume (RTV) ([1]; 769-P nude mice, 50 mg/kg): 10.54 ± 2.65
Tumor Weight ([1]; 769-P nude mice, 50 mg/kg): 1.09 ± 0.48 g
Tumor Volume (mm3) (d 1) ([1]; 769-P nude mice, 50 mg/kg): 96.82 ± 8.51 mm3
Tumor Volume (mm3) (d30) ([1]; 769-P nude mice, 50 mg/kg): 1020.75 ± 282.92 mm3
Inhibition Rate (%) ([1]; 769-P nude mice, 100 mg/kg): 68.82%
Relative Tumor Proliferation Rate (T/C) ([1]; 769-P nude mice, 100 mg/kg): 36.88%
Relative Tumor Volume (RTV) ([1]; 769-P nude mice, 100 mg/kg): 6.81 ± 0.30
Tumor Weight ([1]; 769-P nude mice, 100 mg/kg): 0.64 ± 0.01 g
Tumor Volume (mm3) (d 1) ([1]; 769-P nude mice, 100 mg/kg): 103.26 ± 9.71 mm3
Tumor Volume (mm3) (d30) ([1]; 769-P nude mice, 100 mg/kg): 702.74 ± 37.66 mm3
Relative Tumor Proliferation Rate (T/C) [1, 3]: 36.88%
tumor growth inhibition rate [1, 3]: 68.82%
Relative Tumor Proliferation Rate (T/C) [1, 4]: 75.78%
tumor growth inhibition rate [1, 4]: 33.68%
tumor volume and relative tumor volume compared with the model group ([1]; 769-P): significantly lower
Relative Tumor Proliferation Rate (T/C) [1, 5]: 57.12%
tumor growth inhibition rate [1, 5]: 47.33%
Body Weight (g) (d1) ([1]; 25 mg/kg): 21.44 ± 1.45 g
Body Weight (g) (d30) ([1]; 25 mg/kg): 21.87 ± 0.89 g
Body Weight (g) (d1) ([1]; 50 mg/kg): 21.79 ± 1.37 g
Body Weight (g) (d30) ([1]; 50 mg/kg): 22.00 ± 0.94 g
Body Weight (g) (d1) ([1]; 100 mg/kg): 21.39 ± 1.24 g
Body Weight (g) (d30) ([1]; 100 mg/kg): 21.88 ± 0.54 g
NK Cell Activity ([2]; 13 mg/kg): 52.5 ± 9.2%
NK Cell Activity ([2]; 26 mg/kg): 67.0 ± 12.1 %
NK Cell Activity ([2]; 52 mg/kg): 39.8 ± 6.8%
NK cell activity compared with the control group [2]: significantly increase
